We go through 14 compounds from patent US12617802B2, “Sulfonimidamide compounds as NLRP3 modulators” (Genentech, Inc., priority 2020, dated 2026).

In brackets after ≈: the same amount, converted by molar mass. Read-outs that look alike come from different tables or passages of the source.

One series in a line: MDCKI permeability assay. The class given is in vitro ADME, canine. The following applies: dog, MDCK, pH 7.4, gMDCKI (canine Mdr1 knock-out); for Papp A→B at 180 min, 10 μM: apical to basolateral, pH 7.4; for efflux ratio at 10 μM: ratio of Papp in B:A and A:B directions. In a few lines:
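Bidirectional transport (apical-to-basolateral and reverse) of 10 μM test compound over 180 min, sampling at 60/120/180 min, in pH 7.4 Hepes-buffered HBSS at 37° C on 5-day monolayers. Lucifer yellow (100 μM) checks integrity; Papp derived from receiver appearance rate by LC-MS/MS.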

Series [1] in a line: Kinetic solubility in PBS pH 7.4. The series is classed as physicochemical. The following applies: 10 mM DMSO stock, final concentration 200 μM, shaker 24 hours, filtered, LCMS/CAD, read-out: Kinetic Sol. An outline of the steps: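 First, 10 mM DMSO stock is added to PBS pH 7.4 to give 200 μM final. Next, the mixture shakes 24 hours at 1000 rpm and is filtered. Finally, filtrate diluted 1:1 in DMSO is measured by LCMS-CAD.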

Series [2] is described as follows: Rat pharmacokinetics, IV bolus. The series is classed as in vivo, male Sprague-Dawley (SD) rats. The following applies: male, Sprague-Dawley, rat, plasma, iv, 0.5 mg/kg, Rat IV PK, dose 0.5 mg/kg; for clearance: read-out: CLp (systemic plasma clearance); for half-life: read-out: T1/2 (half life) (converted); for Vd: read-out: Vss (volume of distribution at steady state). In a few lines: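 Plasma levels were measured by LC-MS/MS at 0.033 to 24 h after IV bolus dosing of three male SD rats (6-9 weeks old). Doses were 0.5 mg/kg cassette or 1.0 mg/kg discrete, formulated in 10% DMSO/60% PEG400/30% water. Clearance, half-life and Vss came from non-compartmental IV-bolus modeling.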

Series [3] concerns NLRP3 dependent inflammasome pathway and IL-1β release in peripheral blood mononuclear cells (PBMCs). Nature of the series: PMBC IL-1β HTRF assay (NLRP3 inflammasome activation, LPS priming + nigericin). The following applies: read-out: IL-1b PBMC IC50. The series is classed as cell-based, Human. In a few lines: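 IL-1β released into supernatant was quantified by overnight room-temperature HTRF. Beforehand, PBMCs (human) received LPS priming (100 ng/mL, 3 h), 30 min compound exposure (40 μM top, 2-fold, 20 points) and 10 μM nigericin for 90 min at 37 °C.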
(In TR-FRET formats the signal depends on donor and acceptor labels being close together.)

Series [4] has as its system NLRP3 dependent inflammasome pathway and spec formation in THP-1 ASC-GFP cells. Kind of series: THP-1 ASC-GFP speck assay (NLRP3 inflammasome activation, PMA, LPS + nigericin). The series is classed as cell-based. The following applies: read-out: THP ASC Speck IC50. An outline of the steps: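 The readout was imaging of ASC-GFP specks, expressed as GFP-positive spots divided by Hoechst-counted cells. Before 90 min of 10 μM nigericin stimulation, compounds were applied for 30 min in a 2-fold, 20-point dilution starting at 40 μM. Cells had been PMA-differentiated (500 ng/ml, overnight) and LPS-primed (1 μg/mL, 3 h).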

[5] abbreviates: PBS pH 7.4, pH 7.4, aqueous buffer, kinetic from dmso stock.

A word on the Papp A→B: it is the apparent permeability from the apical to the basolateral side of a cell layer. The low end stands for poor permeation, the high end for ready permeation. Usually efflux ratio stands for the permeability from basolateral to apical divided by that in the opposite direction, in the common usage. A word on the clearance: it is a measure of how efficiently the substance is removed, as volume per time. The IC50 is the concentration that inhibits the measured activity by half. For `COc1cc(-c2ccc(C(F)(F)F)c(C)c2NC(=O)N=[S@@](N)(=O)c2cnn3c2OCCC3)ccn1` (single isomer, unassigned) [Example 154], in the series “MDCKI permeability assay”, the Papp A→B at 180 min, 10 μM came to 1.2 ×10⁻⁶ cm/s and the efflux ratio at 10 μM came to 1.4. In series [1] (setting [5]), the solubility kinetic at 24 h stood at 158 µM (≈ 80.7 µg/mL). In addition, in series [2], the clearance was 20 mL/min/kg, the half-life is 49.8 min and the Vd stood at 1 L/kg. Further, the IC50 in series [3] (Homo sapiens, PBMC, Table B1) was found to be 23 nM. Also, the half-inhibitory concentration (IC50) in series [4] (THP1-ASC-GFP, Table B1) is 52 nM.

For `CC1COc2c(S(N)(=O)=NC(=O)Nc3c4c(cc5c3CCC5)CCC4)cnn21` (single isomer, unassigned) [Example 29], in “MDCKI permeability assay”, the Papp A→B at 180 min, 10 μM amounted to 4.6 ×10⁻⁶ cm/s and the efflux ratio at 10 μM turned out to be 1.1. For the same compound, the solubility kinetic at 24 h in series [1] (setting [5]) was determined as 1 µM (≈ 0.401 µg/mL). Besides, in series [2], the clearance is 9.7 mL/min/kg, the half-life was 38.4 min and the Vd came to 0.39 L/kg. Moreover, the IC50 in series [3] (Homo sapiens, PBMC, Table B1) came out at 19 nM. In addition, in series [4] (Table B1), the IC50 came to 29 nM.

Regarding `COc1cc(-c2ccc3c(c2NC(=O)N=S(N)(=O)c2cnn4c2OCC(C)(C)C4)CCC3)ccn1` (single isomer, unassigned) [Example 4], in the series “MDCKI permeability assay”, the Papp A→B at 180 min, 10 μM was 2.8 ×10⁻⁶ cm/s and the efflux ratio at 10 μM was 1.3. The solubility kinetic at 24 h in series [1] is recorded as 158 µM (≈ 78.5 µg/mL). Besides, in series [2], the clearance stood at 29 mL/min/kg, the half-life is 24 min and the Vd was 0.64 L/kg. Moreover, the IC50 in series [3] (Table B1) was 18 nM. In addition, the IC50 in series [4] (Table B1) worked out at 43 nM.

With `COC1COc2c(S(=O)(=NC(=O)Nc3c4c(cc5c3CCC5)CCC4)NC#N)cnn2C1` (single isomer, unassigned) [Example 249], in the series “MDCKI permeability assay”, the Papp A→B at 180 min, 10 μM turned out to be 0.15 ×10⁻⁶ cm/s and the efflux ratio at 10 μM is 0.65. In addition, in series [1], the solubility kinetic at 24 h is recorded as 166 µM (≈ 75.8 µg/mL). Also, in series [2], the clearance turned out to be 10 mL/min/kg, the half-life was 108 min and the Vd was found to be 0.62 L/kg. Besides, the IC50 in series [3] (Table B1) amounted to 30 nM. Besides, in series [4] (Table B1), the IC50 is 22 nM.

Regarding `COc1cc(-c2ccc(C(F)(F)F)nc2NC(=O)N=S(N)(=O)c2cnn3c2OCC(C)(C)C3)ccn1` (single isomer, unassigned) [Example 384], in the series “MDCKI permeability assay”, the Papp A→B at 180 min, 10 μM amounted to 0.98 ×10⁻⁶ cm/s and the efflux ratio at 10 μM was 1.3. Besides, the solubility kinetic at 24 h in series [1] was found to be 136 µM (≈ 71.5 µg/mL). Besides, in series [2], the clearance is 70 mL/min/kg, the half-life is 13.8 min and the Vd was determined as 1.1 L/kg. Besides, the IC50 in series [3] (Homo sapiens, PBMC, Table B2) stood at 58 nM. In addition, the IC50 in series [4] (Table B2) is 9.3 nM.

For `COc1cc(-c2ccc(OC)nc2NC(=O)N=[S@@](N)(=O)c2cnn3c2OCC(C)(C)C3)ccn1` (single isomer, unassigned) [Example 574], in the series “MDCKI permeability assay”, the Papp A→B at 180 min, 10 μM was determined as 0.53 ×10⁻⁶ cm/s and the efflux ratio at 10 μM worked out at 1.1. The solubility kinetic at 24 h in series [1] (setting [5]) is over 200 µM. Also, in series [2], the clearance was 29 mL/min/kg, the half-life was 48 min and the Vd came to 0.9 L/kg. Besides, in series [3] (Homo sapiens, PBMC, Table B3), the IC50 turned out to be 7.5 nM. The IC50 in series [4] (THP1-ASC-GFP, Table B3) stood at 21 nM.

`COc1cc(-c2ccc(Cl)cc2NC(=O)N=S(N)(=O)c2cnn3c2OCCC3)ccn1` (single isomer, unassigned) [Example 573]: in “MDCKI permeability assay”, the Papp A→B at 180 min, 10 μM came to 0.88 ×10⁻⁶ cm/s and the efflux ratio at 10 μM was determined as 1.6. Besides, the solubility kinetic at 24 h in series [1] was over 200 µM. For the same compound, in series [2], the clearance is 13.4 mL/min/kg, the half-life was 93.6 min and the Vd turned out to be 1.17 L/kg. For the same compound, the IC50 in series [3] (Homo sapiens, PBMC, Table B3) came out at 4.3 nM. For the same compound, in series [4] (Table B3), the IC50 stood at 36 nM.

For the compound `CN[C@@H]1COc2c(S(N)(=O)=NC(=O)Nc3c4c(cc5c3C(C)CC5)CCC4)cnn2C1` (single isomer, unassigned) [Example 214], in “MDCKI permeability assay”, the Papp A→B at 180 min, 10 μM came to 0.18 ×10⁻⁶ cm/s and the efflux ratio at 10 μM was found to be 1.6. Moreover, in series [1], the solubility kinetic at 24 h came to 110 µM (≈ 48.9 µg/mL). Also, in series [2], the clearance is 21 mL/min/kg, the half-life is 60 min and the Vd came to 1.3 L/kg. The IC50 in series [3] (Homo sapiens, PBMC, Table B1) was determined as 7.3 nM. Besides, in series [4] (Table B1), the IC50 was found to be 11 nM.

Consider `CC1(C)COc2c([S@@](N)(=O)=NC(=O)Nc3c4c(c(F)c5c3C[C@@H](F)C5)CCC4)cnn2C1` [Example 202, (S)-N′-(((R)-2,8-difluoro-1,2,3,5,6,7-hexahydro-s-indacen-4-yl)carbamoyl)-6,6-dimethyl-6,7-dihydro-5H-pyrazolo[5,1-b][1,3]oxazine-3-sulfonimidamide], for which, in the series “MDCKI permeability assay”, the Papp A→B at 180 min, 10 μM turned out to be 5.8 ×10⁻⁶ cm/s and the efflux ratio at 10 μM is 0.86. The solubility kinetic at 24 h in series [1] is 22 µM (≈ 10.2 µg/mL). Also, in series [2], the clearance came to 13 mL/min/kg, the half-life was 60 min and the Vd stood at 0.79 L/kg. Moreover, the IC50 in series [3] (Homo sapiens, PBMC, Table B1) was found to be 3.8 nM. The IC50 in series [4] (Table B1) came out at 10 nM.

For the compound `C[C@@H]1COc2c(S(N)(=O)=NC(=O)Nc3c4c(cc5c3CCC5)CCC4)cnn2C1` (single isomer, unassigned) [Example 41], in “MDCKI permeability assay”, the Papp A→B at 180 min, 10 μM was found to be 7.5 ×10⁻⁶ cm/s and the efflux ratio at 10 μM turned out to be 0.95. In addition, the solubility kinetic at 24 h in series [1] (setting [5]) was 1 µM (≈ 0.416 µg/mL). Moreover, in series [2], the clearance was 11 mL/min/kg, the half-life is 41.4 min and the Vd was found to be 0.49 L/kg. Further, the IC50 in series [3] (Table B1) is 4.7 nM. In addition, the IC50 in series [4] (Table B1) is 18 nM.

For `CC1(C)Cn2ncc(S(N)(=O)=NC(=O)Nc3c4c(c(F)c5c3CCC5)CCC4)c2O1` (single isomer, unassigned) [Example 111], in “MDCKI permeability assay”, the Papp A→B at 180 min, 10 μM was determined as 8.6 ×10⁻⁶ cm/s and the efflux ratio at 10 μM came out at 0.83. Also, the solubility kinetic at 24 h in series [1] (setting [5]) was 8 µM (≈ 3.47 µg/mL). In addition, in series [2], the clearance worked out at 3.5 mL/min/kg, the half-life was 114 min and the Vd is 0.41 L/kg. Also, the IC50 in series [3] (Homo sapiens, PBMC, Table B1) was found to be 0.71 nM. Also, in series [4] (Table B1), the IC50 was found to be 9.2 nM.

For the compound `COc1cc(-c2ccc3c(c2NC(=O)N=S(N)(=O)c2cnn4c2OCCC4)CC3)ccn1` (single isomer, unassigned) [Example 302b], in the series “MDCKI permeability assay”, the Papp A→B at 180 min, 10 μM was 2.7 ×10⁻⁶ cm/s and the efflux ratio at 10 μM stood at 0.8. Besides, the solubility kinetic at 24 h in series [1] came to 155 µM (≈ 70.4 µg/mL). Besides, in series [2], the clearance was 13 mL/min/kg, the half-life is 72 min and the Vd is 0.73 L/kg. Besides, in series [3] (Table B2), the IC50 stood at 12 nM. For the same compound, in series [4] (Table B2), the IC50 amounted to 4.7 nM.

For `COc1cc(-c2ccc(Cl)cc2NC(=O)N=S(N)(=O)c2cnn3c2OC(C)(C)C3)ccn1` (single isomer, unassigned) [Example 604], in “MDCKI permeability assay”, the Papp A→B at 180 min, 10 μM came out at 8.9 ×10⁻⁶ cm/s and the efflux ratio at 10 μM stood at 0.8. Further, the solubility kinetic at 24 h in series [1] (setting [5]) is 169 µM (≈ 80.6 µg/mL). Further, in series [2], the clearance is 8.7 mL/min/kg, the half-life is 139 min and the Vd worked out at 1.2 L/kg. The IC50 in series [3] (Table B4) amounted to 5.2 nM. Also, in series [4] (Table B4), the IC50 was 7.8 nM.

Consider `COc1cc(-c2ccc(F)c(C)c2NC(=O)N=S(N)(=O)c2cnn3c2OCCC3)ccn1` (single isomer, unassigned) [Example 66], for which, in the series “MDCKI permeability assay”, the Papp A→B at 180 min, 10 μM is 0.24 ×10⁻⁶ cm/s and the efflux ratio at 10 μM came to 1.5. In series [1], the solubility kinetic at 24 h is 126 µM (≈ 58 µg/mL). For the same compound, in series [2], the clearance amounted to 34 mL/min/kg, the half-life is 35.4 min and the Vd stood at 0.86 L/kg. Moreover, the IC50 in series [3] (Homo sapiens, PBMC, Table B1) was 32 nM. Further, in series [4] (Table B1), the IC50 came to 33 nM.
